Measured values from patent US20250129045A1, “SMALL MOLECULE PIM AND MTOR KINASE INHIBITOR AND METHODS OF USE THEREOF” (Arizona Board of Regents on Behalf of the University of …, priority 2022, published 2025).

Assays:
[1] = molecular target: Pim1 (Homo sapiens, UniProt P11309); test: Kinase assay with purified Pim1 and EDC3 (EDC3 S161 phosphorylation); format: biochemical; details: in vitro, FIG. 8
Description: FIGS. 7A-7I show inhibition of VBT5445 (VBT) on Pim1 and EDC3 binding and phosphorylation. FIG. 7A: In vitro co-precipitation (Co-PPT) assay was performed with recombinant EDC3 and biotinylated Pim1 using Streptavidin beads with increasing concentrations of the Pim inhibitor VBT5445 (VBT). FIG. 7B: Kinase assays were performed with recombinant EDC3 and Pim1 with increasing concentrations of VBT. FIG. 7C: Cell lysates from PC3-LN4 cells cultured with DMSO, 10 μM VBT, 3 μM AZD5363 (AKTi) and the combination for 6 hrs were subjected to western blotting (WB). […] WBs were performed using the indicated antibodies. FIG. 7E: PC3-LN4 cells were seeded into 48 well plate and incubated with either DMSO, VBT, AZD5363 or the combination, for 4.5 days. A real-time imaging system (IncuCyte™) was used to measure cell proliferation using a non-label cell monolayer confluence approach. FIG. 7F-7H: GFP image in PC3 LN4 GFP EDC3 expressing cells treated with PIMi: VBT (5 μM) and VBT (5 μM)+AZD5363 (3 μM) for 6 hrs.
Computer screening followed by surface plasmon resonance (SPR) yielded a lead compound VBT-5445 that can interact with the Pim-1 protein kinase. Enhancer of mRNA Decapping 3 (EDC3) is a substrate of the Pim kinase that regulates the decapping of messenger RNA, and its activity is modulated by Pim mediated phosphorylation. […]

[2] = test system: PANC1 cells; test: Reverse-phase protein array (RPPA) of PANC1 cells, Table 3; format: cell-based; details: 6 h treatment, divided by zero-time value, average of triplicate
Description: To further examine how these compounds function to inhibit tumor growth, changes in both a wide variety of phosphoprotein and protein levels using reverse-phase protein arrays (RPPA) were evaluated. […] The values in the RPPA obtained at these two time points were divided by the value at time zero to allow an evaluation of the changes caused by each drug treatment.

[3] = test system: DU145 prostate cancer; test: DU145 prostate cancer growth (crystal violet, 7 days); format: cell-based; details: 7 days of growth
Description: Cells were plated at 1000 cells per well and 24 h later treated with GRG compounds. After 7 days of growth, tumor cells were fixed with 4% paraformaldehyde, stained with 0.5% crystal violet in methanol and lysed in SDS. The absorbance of six samples treated with each compound or DMSO control was read at 570 nm. The error bars represent the Standard Deviation of these measurements
Cell growth was measured as in FIG. 17.

[4] = test system: mTORC; test: Phosphorylation of mTORC substrates in PANC1 cells (Western blot); format: cell-based; details: overnight incubation
Description: Immunoblotting: Western blots were performed as described previously. Briefly, protein lysates (30 μg) were subjected to SDS-PAGE and transferred to nitrocellulose membranes. After blocking with 5% milk in TBST buffer for 30 min at room temperature, the membranes were incubated overnight at 4° C. with the Indicated primary antibody in 3% BSA in TBST. Specific proteins were detected with the corresponding HRP conjugated secondary antibody using enhanced chemiluminescence (GE Lifesciences, Piscataway, NJ).
Because of ease of growth, PANC1 pancreatic cancer cells were used to test the activity of derivatives of VBT-5445 (FIG. 14). […] Using a doxycycline inducible Pim kinase vector in these tumor cells, this inhibition of phosphorylation was proportional to the level of Pim in these cells (FIG. 9). […] Inhibition of mTORC1 is known to stimulate the feedback activation of mTORC2 leading to AKT phosphorylation. […] The effect of these compounds on mTORC1 and 2 was still evident in PC3-LN4 cells that contained a knockout (KO) using CRISPR/CAS9 of either TSC2 or DEPDC5 (FIG. 12, lanes 4-9). TSC2 KO activated the Rheb GTPase while DEPDC5 KO activated the RAG GTPase both of which stimulate mTORC1 activity. Thus, GRG compounds were capable of inhibiting mTORC1 activity even when this kinase was highly activated.

Sequence of Pim1 (P11309 whole entry): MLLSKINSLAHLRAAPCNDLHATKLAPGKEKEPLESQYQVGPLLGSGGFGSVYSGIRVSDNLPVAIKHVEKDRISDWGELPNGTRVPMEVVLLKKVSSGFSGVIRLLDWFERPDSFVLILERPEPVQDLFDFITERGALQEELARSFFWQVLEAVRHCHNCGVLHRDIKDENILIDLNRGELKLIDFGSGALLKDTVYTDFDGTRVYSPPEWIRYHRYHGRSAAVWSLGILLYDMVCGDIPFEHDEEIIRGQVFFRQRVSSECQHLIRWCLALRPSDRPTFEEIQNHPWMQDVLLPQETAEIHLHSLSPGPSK

O=c1c(CNCc2cc(Br)ccn2)cc2ccc(Cl)cc2n1CCOc1ccccc1 [GRG-1-34, 3-((((4-bromopyridin-2-yl)methyl)amino)methyl)-7-chloro-1-(2-phenoxyethyl) quinolin-2 (1H)-one]
inhibition of the ability of Pim to phosphorylate EDC3 [1]: inhibit the ability of Pim to phosphorylate EDC3 | 4EBP1S65, RPPA value after treatment / zero-time value [2]: 0.52 | 4EBP1T70, RPPA value after treatment / zero-time value [2]: 0.75 | ATMS1981, RPPA value after treatment / zero-time value [2]: 0.46 | CICaspase3D175, RPPA value after treatment / zero-time value [2]: 1.09 | CofilinS3, RPPA value after treatment / zero-time value [2]: 0.46 | CrkIIY221, RPPA value after treatment / zero-time value [2]: 1.58 | ERKT202_Y204, RPPA value after treatment / zero-time value [2]: 2.39 | FAKY576_577, RPPA value after treatment / zero-time value [2]: 0.78 | FKHR-FOX01S256, RPPA value after treatment / zero-time value [2]: 0.71 | GSK3a_bS21_9, RPPA value after treatment / zero-time value [2]: 1.66 | HistoneH2AXS139, RPPA value after treatment / zero-time value [2]: 0.76 | HistoneH3S10, RPPA value after treatment / zero-time value [2]: 0.69 | IL-1bcleavedD116, RPPA value after treatment / zero-time value [2]: 0.41 | Jak1Y1022_1023, RPPA value after treatment / zero-time value [2]: 0.79 | MAPKpTEpY, RPPA value after treatment / zero-time value [2]: 1.35 | PDGFRbY751, RPPA value after treatment / zero-time value [2]: 7.02 | PP1aT320, RPPA value after treatment / zero-time value [2]: 0.47 | PaxillinY118, RPPA value after treatment / zero-time value [2]: 1.08 | RetY905, RPPA value after treatment / zero-time value [2]: 0.77 | S6RibosomalPS235_236, RPPA value after treatment / zero-time value [2]: 1.05 | S6RibosomalProtein S240_244, RPPA value after treatment / zero-time value [2]: 0.95 | SAPK_JNKT183_Y185, RPPA value after treatment / zero-time value [2]: 0.85 | Stat2Y690, RPPA value after treatment / zero-time value [2]: 2.89 | Stat3Y705, RPPA value after treatment / zero-time value [2]: 1.57 | Tyk2Y1054_1055, RPPA value after treatment / zero-time value [2]: 0.39 | VEGFR2Y1175, RPPA value after treatment / zero-time value [2]: 0.54 | YAPS127, RPPA value after treatment / zero-time value [2]: 0.68 | cAbIY245, RPPA value after treatment / zero-time value [2]: 0.87 | cKitY703, RPPA value after treatment / zero-time value [2]: 1.8 | p38MAPKT180_Y182, RPPA value after treatment / zero-time value [2]: 1.15 | p70S6KS371, RPPA value after treatment / zero-time value [2]: 0.62 | p70S6KT389, RPPA value after treatment / zero-time value [2]: 0.74 | p90RSKS380, RPPA value after treatment / zero-time value [2]: 1.51 | DU145 prostate cancer growth [3]: Inhibition | DU145 prostate cancer growth ([3]; listed as VBT 1-34): shows activity | block of phosphorylation of mTORC substrates (AKT, 4E-BP1, S6) ([4]; FIG. 19): block the phosphorylation of mTORC substrates | block of phosphorylation of mTORC substrates (AKT, 4E-BP1, S6) ([4]; FIG. 19, listed as VBT 1-34): inhibit phosphorylation of mTORC substrates
